Data reported in PubChem BioAssay (NCI).
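A five-concentration, 48-hour dose response in 96-well plates underlies each endpoint, interpolated linearly between surrounding concentrations. GI50 is the concentration that inhibits growth by half. TGI marks complete inhibition of growth.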

Key:
Assay in all cases: NCI anticancer screen, dose series, 48 h
[1] = tested on: SNB-75 CNS
[2] = tested on: NCI-H522 lung
[3] = tested on: 786-0 renal
[4] = tested on: SNB-19 CNS
[5] = tested on: K-562 leukemia
[6] = tested on: A549 NSCLC
[7] = tested on: UO-31 renal
[8] = tested on: HCT-116 colon
[9] = tested on: U251 CNS

| SMILES | GI50 [1] [µM] | TGI [1] [µM] | GI50 [2] [µM] | TGI [2] [µM] | GI50 [3] [µM] | TGI [3] [µM] | GI50 [4] [µM] | TGI [4] [µM] | GI50 [5] [µM] | TGI [5] [µM] | GI50 [6] [µM] | TGI [6] [µM] | GI50 [7] [µM] | TGI [7] [µM] | GI50 [8] [µM] | TGI [8] [µM] | GI50 [9] [µM] | TGI [9] [µM] |
| --- | --- | --- | --- | --- | --- | --- | --- | --- | --- | --- | --- | --- | --- | --- | --- | --- | --- | --- |
| CN(C)CCCC1(c2ccc(F)cc2)OCc2cc(-c3ccc4cc[nH]c4c3)ccc21 (centres undefined) | 1.35 | 3.54 | 2.07 | 4.49 | 1.78 | 3.41 | 1.79 | 3.67 | 1.93 | 4.08 | 2.11 | 4.57 | 1.45 | 2.82 | 1.88 | 3.57 | – | – |
| O=C(c1cccs1)c1c(C(F)(F)F)n([O-])c2cc(F)c(F)cc2[n+]1=O | – | – | 1.84 | 3.13 | 4.44 | 8.75 | 6.01 | 8.76 | 0.71 | 2.44 | 6.16 | 12.5 | 2.97 | 5.51 | 1.82 | 8.01 | 1.02 | 2.72 |
| COc1ccc2cc(C(=O)/C=C/c3ccc(OC)c(OC)c3)ccc2c1 | – | – | – | – | 18.8 | 35.4 | 27.2 | 80 | 5 | 94.9 | 4.29 | 30.3 | 23.3 | 49.3 | 2.69 | 10.3 | 11.8 | 58.8 |
| O=C1OC(c2ccc([N+](=O)[O-])cc2)=N/C1=C\c1ccc(O)cc1 | – | > 100 | – | > 100 | – | > 100 | – | > 100 | – | > 100 | – | > 100 | – | – | – | > 100 | – | > 100 |
| CCOC(=O)c1cc(C(=O)c2cc(OC)cc(OC)c2)n2ncccc12 | 0.399 | > 100 | – | – | 11.4 | > 100 | 4.28 | > 100 | 0.539 | > 100 | 11.1 | > 100 | 5.68 | > 100 | – | – | 2 | > 100 |
| NC(C(=O)O)C(N)C(=O)O (centres undefined) | – | – | – | > 100 | – | > 100 | – | > 100 | – | > 100 | – | > 100 | – | > 100 | – | > 100 | – | > 100 |
| COC(=O)/C(=C/N1CCN(C(=O)c2ccco2)C1=S)C(C)=O | 21 | > 100 | – | – | 11.2 | 27.7 | 41.7 | 94.8 | 10.2 | > 100 | 19.3 | 39.7 | 13.5 | 30.9 | 7.42 | 24.2 | 5.53 | 23.1 |
| O=C1C(Nc2ccccn2)=C(I)C(=O)c2ncccc21 | 1.01 | 2.23 | 0.725 | 2.5 | 1.9 | 4.68 | 1.04 | 2.24 | 0.367 | 4.29 | 1.28 | 2.88 | – | – | 0.372 | 1.61 | 0.591 | 2.07 |
| C[C@]12CC[C@H]3[C@@H](C[C@@H]4SC(Nc5cccc(F)c5)=N[C@@]45CC(=O)CC[C@]35C)[C@@H]1CCC2=O | 1.52 | 4.94 | 1.63 | 3.06 | 1.43 | 2.83 | 2.33 | 5.69 | – | – | 2.58 | 7.5 | 1.67 | 3.59 | 1.59 | 3.24 | 1.59 | 3.68 |
| O=S(=O)(Nc1ccc(Cl)c(C(F)(F)F)c1)c1ccc(-c2cnc(C3CC3)o2)cc1 | 0.125 | 1.72 | 0.149 | 3.25 | 1.1 | 3.58 | – | – | 0.117 | > 100 | 0.577 | > 35.6 | 0.871 | 6.25 | 0.187 | 4.14 | 0.326 | 10.9 |
| CC1=CC(C)C(O)C(C)/C=C/C(O)C/C=C(/C)C(=O)CC(O)C(C)\C=C/C=C/C=C\C(=O)NC2=C(O)c3cc(C)c(O)c(c3C(=O)C2=O)C1=O (centres undefined) | – | > 100 | – | > 100 | – | > 100 | – | > 100 | – | – | – | > 100 | – | > 100 | – | > 100 | – | > 100 |
| C#C[C@]1(O)CC[C@H]2[C@@H]3CC=C4c5nc(Nc6ccc(OC)cc6OC)sc5CC[C@]4(C)[C@H]3CC[C@@]21C | – | – | 2.22 | 5.79 | 0.504 | 2.6 | 1.75 | 10.7 | 0.525 | 13 | 2.68 | 43.9 | 1.36 | 5.16 | 1.21 | 2.7 | 0.77 | 4.09 |
| O=C(O)[C@@H]1C[C@@H](O)CN1 | – | > 100 | – | – | – | > 100 | – | > 100 | – | > 100 | – | > 100 | – | > 100 | – | > 100 | – | > 100 |
| Clc1ccc2c(NCCCN3CCN(c4nc(-n5ccnc5)nc5ccccc45)CC3)ccnc2c1 | 1.58 | 3.25 | – | > 22.3 | 1.66 | 3.21 | 2.55 | 6.49 | 2.1 | 6.13 | – | – | 2.49 | – | – | – | 1.89 | 3.53 |
